Measurements published in paper PMC10914731, “Homo-BacPROTAC-induced degradation of ClpC1 as a strategy against drug-resistant mycobacteria” (Nature Communications, 2024).
Values joined by “and” are separate entries in the source; they are usually repeats but may differ in a detail not shown here. Equal entries are not always repeated. Where two headings read alike, the source gives them in different places. *1 amine or outer side, *2 acyl side, *3 side chain or, on linkers, in order; H or OH if unused. Where a SMILES comes first, the peptide text is derived from it. [ ]: non-standard residue; d: D form. ξ: configuration not given here. X3 = C#CCOc1ccc([C@@H](OC)[C@H](N[*:1])C(=O)[*:2])cc1; ξNMeTrp(1-Me) = CNC(Cc1cn(C)c2ccccc12)C(=O)O; X8 = CC(CO)C[C@@H](C(=O)[*:2])N(C)[*:1]; NMeL = CN[C@@H](CC(C)C)C(=O)O; ξV = CC(C)C(N)C(=O)O

Columns and labels:
[1] = target: ClpC1 NTD protein (M. tuberculosis) (Mycobacterium tuberculosis, UniProt P9WPC9); experiment: biochemical; assay type: binding
in vitro = settings: human; for Papp A→B: apical to basolateral; for Papp B→A: basolateral to apical
From the text: (§1) Supplementary Table 1. Structure-Activity Relationships part 1 (SPR, Caco-2) […]
(§2) SPR. Mean values ± standard deviation. Footnotes indicate the number of measurements performed for the respective compound: a) n = […]
(§3) [5] Permeability across Caco-2 monolayers in P(A−B): apical to basolateral and P(B−A): basolateral to apical direction (values reported in 10-
(§4) 6 cm s-1); efflux ratio = P(B−A)/P(A−B); Int. perm: mean value of P(A−B) and P(B−A). […] Influence of Trp-Nα methylation on P(A-B) and efflux
(§5) ratio. Bold: positive influence.

Caco-2 monolayers = experiment: in vitro
From the text: as §1, §2, §3, §4, §5

[2] = Hepatocyte stability, mice; assay type: in vitro ADME; settings: for Hepatocyte Mice: clearance in hepatocytes
Experimental: (§6) Cryopreserved hepatocytes are incubated in an appropriate buffer system containing 50% species serum. Following an acclimation period (15–30 min) in an incubator (37 °C, 5−10% CO2, 85–95% humidity) the test compound is added to the hepatocyte suspension (pH 7.4, typical cell density of about 1 million cells/mL; final concentration of test compound is 1 µM, final DMSO concentration <0.05% v/v). The cells are incubated for up to 6 h and samples are taken at 6 different time points. Samples are then quenched with acetonitrile and pelleted by centrifugation. The remaining amount of parent compound in the supernatants is then analysed by HPLC-MS/MS. Clearance is calculated from compound half-lives using the well-stirred liver model and is converted to clearance stated as % of the liver blood flow (% Qh).

[3] = assay type: in vitro ADME, Rat
Experimental: as §6

[4] = assay type: in vitro ADME, Human; settings: for Hepatocyte Human: clearance in hepatocytes
Experimental: as §6

[5] = target: His6-tagged ClpC1-NTD substrate, M. smegmatis ClpC1P1P2 (UniProt A0R574+P9WPC9); experiment: biochemical; assay type: biochemical
[6] = target: ClpC1-NTD substrate, M. tuberculosis ClpC1P1P2 (Mycobacterium tuberculosis, UniProt P9WPC9); experiment: biochemical; assay type: biochemical
[7] = Caco-2, Caco-2 permeability P (A-B)
[8] = mean value of P(A−B) and P(B−A)
[9] = SPR (Supplementary Table 1), read-out: KD ClpC1-NTD Mean ± SD
[10] = SPR, single independent measurements, read-out: KD ClpC1-NTD
[11] = Caco-2, Caco-2 permeability P (B-A)
[12] = read-out: KD ClpC1-NTD Mean ± SD
[13] = read-out: DC50, single measurements

Sequence of His6-tagged ClpC1-NTD substrate, M. smegmatis ClpC1P1P2 (P9WPC9 1-156, looked up, natural form): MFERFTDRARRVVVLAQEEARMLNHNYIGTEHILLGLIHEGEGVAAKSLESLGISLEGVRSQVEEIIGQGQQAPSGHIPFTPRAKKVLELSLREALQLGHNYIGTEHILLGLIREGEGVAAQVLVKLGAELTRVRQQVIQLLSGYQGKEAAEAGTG
Sequence of His6-tagged ClpC1-NTD substrate, M. smegmatis ClpC1P1P2 (A0R574 whole entry): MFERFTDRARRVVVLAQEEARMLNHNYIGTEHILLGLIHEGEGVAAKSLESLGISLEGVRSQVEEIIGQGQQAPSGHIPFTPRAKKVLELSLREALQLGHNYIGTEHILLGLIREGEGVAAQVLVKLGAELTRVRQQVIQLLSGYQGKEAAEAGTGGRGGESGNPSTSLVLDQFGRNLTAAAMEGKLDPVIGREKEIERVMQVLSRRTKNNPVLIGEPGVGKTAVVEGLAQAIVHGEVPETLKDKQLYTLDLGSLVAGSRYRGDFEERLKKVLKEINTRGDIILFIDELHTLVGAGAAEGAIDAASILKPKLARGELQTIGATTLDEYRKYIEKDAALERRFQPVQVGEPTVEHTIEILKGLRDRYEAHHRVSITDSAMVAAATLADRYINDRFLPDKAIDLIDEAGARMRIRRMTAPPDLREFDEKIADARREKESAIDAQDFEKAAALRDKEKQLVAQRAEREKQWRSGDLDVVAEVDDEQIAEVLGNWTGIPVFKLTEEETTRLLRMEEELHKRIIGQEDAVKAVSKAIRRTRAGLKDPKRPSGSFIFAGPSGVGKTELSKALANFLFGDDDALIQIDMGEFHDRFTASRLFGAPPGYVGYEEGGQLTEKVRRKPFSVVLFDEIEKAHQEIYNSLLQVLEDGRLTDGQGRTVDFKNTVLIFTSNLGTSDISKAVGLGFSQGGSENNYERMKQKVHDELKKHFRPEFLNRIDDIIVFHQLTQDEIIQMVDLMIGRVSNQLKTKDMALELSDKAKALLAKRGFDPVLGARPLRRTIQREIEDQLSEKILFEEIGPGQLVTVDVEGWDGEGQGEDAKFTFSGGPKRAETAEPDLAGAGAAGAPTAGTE
Sequence of ClpC1 NTD protein (M. tuberculosis) (P9WPC9 1-156, looked up, natural form): as the sequence (P9WPC9 1-156, looked up, natural form) above
Sequence of ClpC1-NTD substrate, M. tuberculosis ClpC1P1P2 (P9WPC5 whole entry): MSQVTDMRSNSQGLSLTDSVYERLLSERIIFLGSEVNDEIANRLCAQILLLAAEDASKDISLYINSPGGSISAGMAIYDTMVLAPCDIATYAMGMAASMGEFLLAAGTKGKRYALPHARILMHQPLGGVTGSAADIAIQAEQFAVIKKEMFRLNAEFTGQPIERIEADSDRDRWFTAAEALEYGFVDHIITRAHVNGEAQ
Sequence of ClpC1-NTD substrate, M. tuberculosis ClpC1P1P2 (P9WPC9 whole entry): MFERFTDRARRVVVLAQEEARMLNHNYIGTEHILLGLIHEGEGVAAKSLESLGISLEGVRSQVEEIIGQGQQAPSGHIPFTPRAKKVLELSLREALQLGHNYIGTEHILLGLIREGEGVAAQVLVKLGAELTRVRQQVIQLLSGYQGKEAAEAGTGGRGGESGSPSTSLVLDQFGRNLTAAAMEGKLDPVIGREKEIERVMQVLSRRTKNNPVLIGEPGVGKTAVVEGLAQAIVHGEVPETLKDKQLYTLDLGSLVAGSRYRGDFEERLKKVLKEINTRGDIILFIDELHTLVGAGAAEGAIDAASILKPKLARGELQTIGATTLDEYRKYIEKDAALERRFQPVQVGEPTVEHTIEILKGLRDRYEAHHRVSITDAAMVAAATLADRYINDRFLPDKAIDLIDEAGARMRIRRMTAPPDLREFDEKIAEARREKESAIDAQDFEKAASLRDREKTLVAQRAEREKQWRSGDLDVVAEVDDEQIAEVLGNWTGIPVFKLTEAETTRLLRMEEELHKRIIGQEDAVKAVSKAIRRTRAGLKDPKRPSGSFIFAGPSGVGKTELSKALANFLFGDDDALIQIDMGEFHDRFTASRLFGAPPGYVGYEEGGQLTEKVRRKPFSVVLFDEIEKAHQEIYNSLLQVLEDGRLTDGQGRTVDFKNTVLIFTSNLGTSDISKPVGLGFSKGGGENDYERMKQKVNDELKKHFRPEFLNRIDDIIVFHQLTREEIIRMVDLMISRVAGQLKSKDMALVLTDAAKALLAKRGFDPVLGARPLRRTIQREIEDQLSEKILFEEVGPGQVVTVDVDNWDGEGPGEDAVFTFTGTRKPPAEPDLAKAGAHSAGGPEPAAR
Sequence of ClpC1-NTD substrate, M. tuberculosis ClpC1P1P2 (P9WPC3 whole entry, further chain): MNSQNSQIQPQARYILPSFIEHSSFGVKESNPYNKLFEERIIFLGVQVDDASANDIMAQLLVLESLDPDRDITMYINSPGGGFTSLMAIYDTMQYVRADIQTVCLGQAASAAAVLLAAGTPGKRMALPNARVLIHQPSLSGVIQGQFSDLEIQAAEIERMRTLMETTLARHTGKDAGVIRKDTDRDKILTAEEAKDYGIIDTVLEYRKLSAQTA

Row | SMILES | Papp A→B (in vitro; Caco-2, CACO permeability PEAB) [nm/s] | Papp B→A (in vitro; Caco-2, CACO permeability PEBA) [nm/s] | Papp A→B (in vitro; [7]) [nm/s] | CACO permeability PEBA (Caco-2 monolayers; basolateral to apical) [cm/s] | Caco-2 Int. Perm (Caco-2 monolayers; [8]) | Hepatocyte Stability Mouse QH ([2]; Mouse) [%] | Hepatocyte Mice [2] [%Qh] | Hepatocyte Stability Rat QH ([3]; Rat) [%] | Hepatocyte Rat ([3]; clearance in hepatocytes) [%Qh] | Hepatocyte Stability Human QH ([4]; Human) [%] | Kd [1, 9] [µM] | Kd [1, 10] | Papp B→A (in vitro; [11]) [nm/s] | Hepatocyte Human [4] [%Qh] | koff ClpC1-NTD [1] | Kd ([1]; read-out: KD ClpC1-NTD) | Kd [1, 12] [µM] | CACO permeability PEAB (Caco-2 monolayers; Caco-2) [cm/sec] | CACO permeability PEBA (Caco-2 monolayers; Caco-2) [cm/sec] | Caco-2 Int. Perm (Caco-2 monolayers; Caco-2) | other results
1 | CCCCCn1cc(C[C@@H]2NC(=O)[C@H](CC(C)C)N(C)C(=O)[C@H](C(C)C)NC(=O)[C@H]([C@H](OC)c3ccccc3)NC(=O)[C@H](C)NC(=O)[C@H](C[C@@H](C)CO)N(C)C(=O)[C@H](Cc3cn(C)c4ccccc34)NC2=O)nn1 [Compound 24] | < 2.7 | 130 | < 3 | 0.000011 | 5.6 10-6 cm s-1 | 35.166 | 35 | 33.303 | 33 | 17.172 | – | – | – | – | – | – | – | – | – | – | Kd ([1]; SPR, individual measurements (source data), read-out: KD ClpC1-NTD): 0.00468 µM and 0.00444 µM; Kd ([1]; SPR, read-out: ClpC1-NTD KD Mean ± SD): 0.0046 ± 0.0002 µM
2 | CO[C@H](c1ccccc1)[C@@H]1NC(=O)[C@H](C)NC(=O)[C@H](C[C@@H](C)CO)N(C)C(=O)[C@H](Cc2cn(Cc3cn(CCCCCn4cc(Cn5cc(C[C@H]6C(=O)N(C)[C@@H](C[C@@H](C)CO)C(=O)N[C@@H](C)C(=O)N[C@@H]([C@H](OC)c7ccccc7)C(=O)N[C@@H](C(C)C)C(=O)N(C)[C@@H](CC(C)C)C(=O)N[C@@H](C(C)C)C(=O)N6C)c6ccccc65)nn4)nn3)c3ccccc23)N(C)C(=O)[C@H](C(C)C)NC(=O)[C@H](CC(C)C)N(C)C(=O)[C@H](C(C)C)NC1=O [SI-57] | – | – | < 22 | – | 1.5 10-6 cm s-1 | – | 15 | 8.056 | 8 | – | 0.0016 ± 0.0008 | 0.00213 µM and 0.001 µM | < 7 | 12 | – | – | – | – | – | – | koff ClpC1-NTD ([1]; SPR, single independent measurements): 0.001 s⁻¹; koff ([1]; SPR, single independent measurements, read-out: koff ClpC1-NTD): 0.002 s⁻¹; 1-Dmax, single measurements ([5]; Msm, Measurement 1-6): 73.5% and 61.5% and 74.0%; 1-Dmax (percent substrate remaining at maximal degradation) ([5]; Msm, Measurement 1-6, read-out: 1-Dmax, single measurements): 60.5%; 1-Dmax (percent substrate remaining at maximal degradation) ([5]; Msm, mean of the measurements, read-out: 1-Dmax, Mean): 67%; DC50 ([5]; Msm, mean of the measurements, read-out: DC50, Mean): 23 µM; 1-Dmax, single measurements ([6]; Mtb, Measurement 1-4): 68.4% and 44.2% and 52.6%; DC50 ([6]; Mtb, Measurement 1-4, read-out: DC50, single measurements): 20.9 µM and 18.7 µM and 31.5 µM; 1-Dmax (percent substrate remaining at maximal degradation) ([6]; Mtb, mean of the measurements, read-out: 1-Dmax, Mean): 55%; DC50 ([6]; Mtb, mean of the measurements, read-out: DC50, Mean): 23.7 µM
3 | COC(c1ccc(OCc2cn(CCOCCOCCOCCOCCn3cc(COc4ccc(C(OC)C5NC(=O)C(C)NC(=O)C(CC(C)CO)N(C)C(=O)C(Cc6cn(C)c7ccccc67)N(C)C(=O)C(C(C)C)NC(=O)C(CC(C)C)N(C)C(=O)C(C(C)C)NC5=O)cc4)nn3)nn2)cc1)C1NC(=O)C(C)NC(=O)C(CC(C)CO)N(C)C(=O)C(Cc2cn(C)c3ccccc23)N(C)C(=O)C(C(C)C)NC(=O)C(CC(C)C)N(C)C(=O)C(C(C)C)NC1=O (centres unmarked) [SI-65] | – | – | – | – | – | – | – | – | – | – | – | – | – | – | 5E-3 1E-2 1/s | 0.00229 µM and 0.00135 µM | 0.0018 ± 0.0007 | <0.0000086 | <0.0000051 | 6.9 10-6 cm s-1 | Hepatocyte Stability Mouse QH [2]: 15.001%; Hepatocyte Stability Rat QH [3]: 16.284%; Hepatocyte Stability Human QH [4]: 12.386%; 1-Dmax, Mean [5]: 92%; 1-Dmax, single measurements [5]: 86.9% and 92.9% and 97.0%; DC50 ([5]; read-out: DC50, Mean): 5.2 µM; DC50 [5, 13]: 6.1 µM and 5 µM and 4.5 µM; 1-Dmax, Mean [6]: 84%; 1-Dmax, single measurements [6]: 84.7% and 83.2%; DC50 ([6]; read-out: DC50, Mean): 8 µM; DC50 [6, 13]: 7 µM and 9 µM
4 | CO[C@H](c1ccc(OCc2cn(CCCCCn3cc(COc4ccc([C@@H](OC)[C@@H]5NC(=O)[C@H](C)NC(=O)[C@H](C[C@@H](C)CO)N(C)C(=O)[C@H](Cc6cn(C)c7ccccc67)N(C)C(=O)[C@H](C(C)C)NC(=O)[C@H](CC(C)C)N(C)C(=O)[C@H](C(C)C)NC5=O)cc4)nn3)nn2)cc1)[C@@H]1NC(=O)[C@H](C)NC(=O)[C@H](C[C@@H](C)CO)N(C)C(=O)[C@H](Cc2cn(C)c3ccccc23)N(C)C(=O)[C@H](C(C)C)NC(=O)[C@H](CC(C)C)N(C)C(=O)[C@H](C(C)C)NC1=O [SI-66] | – | – | < 48 | – | 3.7 10-6 cm s-1 | – | 15 | 9.964 | 10 | – | 0.007 ± 0.002 | 0.00857 µM and 0.00641 µM | < 25 | 12 | – | – | – | – | – | – | koff ([1]; SPR dissociation rate constant, read-out: koff ClpC1-NTD Mean ± SD): 0.01 s⁻¹
5 | C#CCOc1ccc([C@@H](OC)[C@@H]2NC(=O)[C@@H](C)NC(=O)[C@H](CC(C)CO)N(C)C(=O)C(Cc3cn(C)c4ccccc34)N(C)C(=O)C(C(C)C)NC(=O)[C@H](CC(C)C)N(C)C(=O)[C@@H](C(C)C)NC2=O)cc1 (some centres unmarked) [SI-64] (cyclo([NMeL][ξV][ξNMeTrp(1-Me)][X8][dA][X3][dV])) | 170 | 440 | – | 0.000042999999999999995 | 29.0 10-6 cm s-1 | 34.335 | 34 | 49.748 | 50 | 21.688 | 0.011 ± 0.001 | 0.0121 µM and 0.0105 µM | – | 22 | – | – | – | – | – | – | efflux ratio (in vitro; Caco-2): 2.9; CACO permeability PEAB (Caco-2 monolayers; apical to basolateral): 0.000014999999999999999 cm/s; Permeability Correlation P (A-B) (Caco-2 monolayers; influence of Trp-Nα methylation on P(A-B), matched pair, listed under the methylated partner): > 75; Permeability Correlation Ratio (Caco-2 monolayers; influence of Trp-Nα methylation on efflux ratio, matched pair, listed under the methylated partner): > 31
6 | CO[C@H](c1ccccc1)[C@@H]1NC(=O)[C@H](C)NC(=O)[C@H](C[C@@H](C)CO)N(C)C(=O)[C@H](Cc2cn(CCCCn3cc(C[C@H]4C(=O)N(C)[C@@H](C[C@@H](C)CO)C(=O)N[C@@H](C)C(=O)N[C@@H]([C@H](OC)c5ccccc5)C(=O)N[C@@H](C(C)C)C(=O)N(C)[C@@H](CC(C)C)C(=O)N[C@@H](C(C)C)C(=O)N4C)c4ccccc43)c3ccccc23)N(C)C(=O)[C@H](C(C)C)NC(=O)[C@H](CC(C)C)N(C)C(=O)[C@H](C(C)C)NC1=O [SI-61] | – | – | – | – | – | – | 15 | – | – | – | – | – | – | – | 8E-4 5E-4 1/s | 0.000581 µM and 0.00049 µM | 0.00054 ± 6e-05 | <0.000 | <0.000 | 2.75 10-6 cm s-1 | Caco-2 permeability P (A-B) (Caco-2 monolayers; Caco-2): < 4.2 10-6 cm s-1; Caco-2 permeability P (B-A) (Caco-2 monolayers; Caco-2): < 1.3 10-6 cm s-1; Hepatocyte Stability Mouse QH [2]: 15.001%; Hepatocyte Rat [3]: 6 %Qh; Hepatocyte Stability Rat QH [3]: 6.192%; Hepatocyte Stability Human QH [4]: 12.386%; 1-Dmax, Mean [5]: 42%; 1-Dmax, single measurements [5]: 37.4% and 43.6% and 42.4% and 44.3%; DC50 ([5]; read-out: DC50, Mean): 5.3 µM; DC50 [5, 13]: 5.3 µM (2×) and 4.6 µM and 5.8 µM; 1-Dmax, Mean [6]: 42%; 1-Dmax, single measurements [6]: 36.8% and 46.3%; DC50 ([6]; read-out: DC50, Mean): 7.2 µM; DC50 [6, 13]: 7.3 µM and 7 µM
